Laboratory results: publication PMC4626215, “Esculentin-2CHa-Related Peptides Modulate Islet Cell Function and Improve Glucose Tolerance in Mice with Diet-Induced Obesity and Insulin Resistance” (PLoS ONE, 2015)
Bridges are numbered along the chain shown (N, C = ends). Where no end group is shown, it is not given here.

How the values were obtained:
[1] = tested on: BRIN-BD11 rat clonal β-cells; assay: In vitro insulin release from BRIN-BD11 cells; assay type: cell-based; settings: 5.6 mM glucose
Description: (§4) In vitro insulin-releasing effects of esculentin-2CHa and its analogues were assessed using BRIN-BD11 rat clonal β-cells and mouse islets. In the first set of experiments, BRIN-BD11 cells were incubated with the peptides in the concentration range (1 pM– 3 μM) in Krebs-Ringer bicarbonate buffer containing 5.6 mM glucose for 20 min at 37°C as previously described [15–17]. Insulin-releasing effects were also assessed using buffer supplemented with 1.4 and 16.7mm glucose concentrations and with established modulators of insulin release as previously described [15–17]. In a second set of experiments, islets from NIH Swiss mice, isolated by collagenase digestion [18, 19], were incubated with a range of concentrations of esculentin-2CHa or its analogues (0.1 nM– 1 μM) for 1 h in Krebs-Ringer bicarbonate (KRB) buffer supplemented with 1.4, 5.6 or 16.7 mM glucose. Following test incubations, aliquots of buffer were retrieved and stored at -20°C for measurement of insulin by radioimmunoassay [20].

[2] = tested on: islets from NIH Swiss mice; assay: In vitro insulin release from isolated mouse islets; assay type: cell-based; settings: 16.7 mM glucose
Description: as §4

BRIN-BD11 cells [3] = settings: 3 μM peptide (highest concentration); mean ± SEM, n = 8
Description: In vitro insulin-releasing effects of esculentin-2CHa and its analogues were assessed using BRIN-BD11 rat clonal β-cells and mouse islets. In the first set of experiments, BRIN-BD11 cells were incubated with the peptides in the concentration range (1 pM– 3 μM) in Krebs-Ringer bicarbonate buffer containing 5.6 mM glucose for 20 min at 37°C as previously described. Insulin-releasing effects were also assessed using buffer supplemented with 1.4 and 16.7mm glucose concentrations and with established modulators of insulin release as previously described. In a second set of experiments, islets from NIH Swiss mice, isolated by collagenase digestion, were incubated with a range of concentrations of esculentin-2CHa or its analogues (0.1 nM– 1 μM) for 1 h in Krebs-Ringer bicarbonate (KRB) buffer supplemented with 1.4, 5.6 or 16.7 mM glucose. Following test incubations, aliquots of buffer were retrieved and stored at -20°C for measurement of insulin by radioimmunoassay. In the experiments with BRIN-BD11 cells, the release of lactate dehydrogenase (LDH) was measured as an indicator of the integrity of the plasma membrane using commercially available CytoTox 96 non-radioactive cytotoxicity assay kit (Promega, Madison, WI, USA) according to the manufacturer’s recommended protocol.

BRIN-BD11 cells [4] = assay: Membrane potential, FLIPR membrane assay kit; assay type: cell-based, rat; settings: 1 μM peptide, 5 min; mean ± SEM, n = 8
Description: (§1) Effects of esculentin-2CHa (1 μM) and its analogues on membrane potential and [Ca^2+]i in BRIN-BD11 cells over a period of 5 min were assessed using commercially available FLIPR membrane or calcium assay kit (Molecular Devices, USA) as previously described. Data were captured using a Flexstation 3 microplate reader equipped with automatic fluid transfer unit (Molecular Devices, USA).

BRIN-BD11 cells [5] = assay: Intracellular calcium ([Ca2+]i), FLIPR calcium assay kit; assay type: cell-based, rat; settings: 1 μM peptide, 5 min; mean ± SEM, n = 8
Description: as §1

high fat fed mice [6] = assay: Acute in vivo glucose tolerance and insulin release; design: species or system mouse
Description: (§2) Male National Institutes of Health (NIH) Swiss mice (Harlan Ltd, UK) were housed separately in an air-conditioned room (22 ± 2°C) with relative humidity of 51 ± 5% and a 12-hour light: 12-hour dark cycle and maintained on a high fat diet containing 45% fat, 20% protein and 35% carbohydrate (total energy 19.5 kJ/g, Dietex International Ltd, Witham, UK) for 120 days. Mice maintained on standard rodent diet containing 10% fat, 30% protein and 60% carbohydrates (total energy 12.99 kJ/g) were used as controls. Both groups of animals were allowed food and water ad libitum. All animal experiments were carried out in accordance with the UK Animals (Scientific Procedures) Act 1986 and EU Directive 2010/63EU for animal experiments. The study was approved by University of Ulster Research Ethics Committee.
For acute in vivo studies, overnight fasted, high fat fed mice (n = 8) received an intraperitoneal injection of glucose alone (18 mmol/kg body weight) or in combination with esculentin-2CHa or its analogues (75 nmol/kg body weight). This peptide dose was selected on the basis of a pilot study that examined acute effects of different doses of esculentin-2CHa on glucose tolerance in lean mice. Blood samples were collected as described previously before injection and at times indicated in the Figures for the measurement of plasma glucose and insulin concentrations.
(§3) Pancreatic tissues were homogenized in 20 mM Tris-HCl, 150 mM NaCl, 1 mM EDTA, 1 mM EGTA and 0.5% Triton X 100; pH 7.5 as previously described. Blood samples (approximately 150 μl), collected from the cut tip of the tail vein of unanesthetized mice at intervals indicated in the Figures were used for blood glucose measurements and determination of plasma insulin as previously described. Blood glucose was measured using a hand-held Ascencia Contour meter (Bayer Healthcare, UK). Plasma and pancreatic insulin were determined by radioimmunoassay. Plasma and pancreatic glucagon contents were determined by ELISA using commercially available kit (Millipore, MA, USA). Plasma creatinine, alanine transaminase (ALT), aspartic acid transaminase (AST) and alkaline phosphatase (ALP) were measured using commercially available kits (Randox Laboratories, UK) as indicators of renal and liver function. Plasma triglyceride and cholesterol concentrations were measured using an automated clinical chemistry analyser (I-lab 650, and reagents purchased from Instrumentation Laboratory (Warrington, UK). The assay kit for cholesterol was obtained from Randox Laboratories (Antrim, UK). Estimation of LDL cholesterol concentrations was achieved using the Friedewald equation as described previously.

high fat fed mice [7] = assay: Longer-term (28 day) in vivo study; design: species or system mouse; Reduction of pancreatic glucagon / Reduction of plasma glucagon / Reduction of total islet area / Reduction of beta cell area / Reduction of alpha cell area: concentration or dose not given beside the values
Description: as §2
High-fat fed mice with clearly manifested features of obesity and hyperglycaemia received twice daily injections of either saline vehicle (0.9% (w/v) (high fat fed controls) or [L28K]esculentin-2CHa (75 nmol/kg body weight) for 28 days. This peptide was chosen based on its potent in vitro and acute in vivo actions. Mice (n = 8) fed standard rodent diet and injected with saline were used as lean controls. Energy intake, bodyweight, non-fasting blood glucose and plasma insulin concentrations were monitored every 72 h throughout the duration of the study. At the end of the 28 day treatment period, glucose tolerance (18 mmol/kg body weight, intraperitoneal or oral, overnight fasted) and insulin sensitivity (25 U/kg body weight) were assessed as previously described. Indirect calorimetry and energy expenditure in treated and control mice were measured using the Comprehensive Laboratory Animal Monitoring System (CLAMS) metabolic chambers (Columbus Instruments, Columbus, OH, USA). Total body lean and fat mass, bone mineral density and bone mineral content were also measured using DXA scanning (Piximus Densitometer, USA). Improvement in beta cell function in [L28K]esculentin-2CHa-treated and control mice were evaluated from the insulin secretory responses of islets isolated from these animals to established insulin secretagogues and incretin hormones (16.7 mM glucose, 1 μM GLP-1, 1 μM GIP, 10 mM alanine, 10 mM arginine and 30 mM KCl). Changes in islet morphology were assessed using pancreatic tissues excised from mice treated with [L28K]esculentin-2CHa or saline for 28 days as previously described.
as §3

[8] = ip glucose 18 mmol/kg with peptide 75 nmol/kg, AUC 0-60 min, mean ± SEM, n = 8
[9] = peptide 75 nmol/kg ip with glucose 18 mmol/kg
[10] = 75 nmol/kg twice daily, 28 days
[11] = after 28 days treatment, ip glucose 18 mmol/kg
[12] = after 28 days treatment, oral glucose 18 mmol/kg

## GFSSIFRGVAKFASKGLGKDLAKLGVDKVACKISKQC (disulfide 31-37 (inferred)) [[L28K]Esculentin-2CHa, substituted analogue of esculentin-2CHa chosen for 28 day study]
[1]; 3 μM
  Stimulatory effect on insulin release at 3 μM compared with native peptide: greater
[1]; minimum concentration producing a significant increase in rate of insulin release, 20 min, 37°C, n = 8
  BRIN-BD11 cells (Threshold concentration): 10 pM
[2]; 1 μM, 1 h
  Stimulation of insulin release from islets, fold of basal: 3.4 fold
[2]; insulin release, 1 h incubation, n = 8
  Mouse islets (Threshold concentration): 1 nM
BRIN-BD11 cells [3]
  LDH release (% of control): 101.8±1.5 % of control
BRIN-BD11 cells [4]
  Membrane potential (AUC, x 10^3 RFU): 7.78±0.22 x 10^3 RFU
BRIN-BD11 cells [5]
  Intracellular Ca2+ (AUC, x 10^2 RFU): 7.28±0.94 x 10^2 RFU
High fat fed mice [6]; [8]
  Plasma glucose (AUC): 327.61±36.87 ^, Δ mmol/l.min
  Plasma insulin (AUC): 262.81±30.56 ^,ΔΔΔ ng/ml.min
High fat fed mice [6]; [9]
  Decrease of plasma glucose AUC versus glucose alone: 52%
  Stimulation of insulin response relative to that with esculentin-2CHa: 2.8 fold
High fat fed mice [7]; [10]
  Body weight: did not affect
  Food intake: did not affect
  Increase in non-fasting plasma insulin versus saline-treated controls: 42%
  Reduction in non-fasting plasma glucose versus saline-treated controls: 25%
High fat fed mice [7]; 28 days treatment
  Adverse effects: no adverse effects were observed
  Decrease in plasma creatinine: 40%
  Number of islets per mm^2 of pancreas: did not affect
  Plasma HDL cholesterol: no effect
  Plasma triglycerides: decreased
  Reduction of alpha cell area: 48%
  Reduction of beta cell area: 43%
  Reduction of total islet area: 44%
  Total pancreatic insulin content (greater in high fat fed mice): reversed
High fat fed mice [7]; 28 days treatment, CLAMS metabolic chambers
  O2 consumption, CO2 production, energy expenditure and respiratory exchange ratio: not affected
High fat fed mice [7]; 28 days treatment, DXA
  Bone area: reversed the loss
High fat fed mice [7]; 28 days treatment, ELISA
  Reduction of pancreatic glucagon: 20%
  Reduction of plasma glucagon: 35%
High fat fed mice [7]; after 28 days treatment, insulin 25 U/kg ip
  Insulin sensitivity: no significant effect
High fat fed mice [7]; [11]
  Improvement of glucose AUC 0–60 min, intraperitoneal glucose tolerance: 20%
  Improvement of insulin AUC 0–60 min, intraperitoneal glucose: 66%
High fat fed mice [7]; [12]
  Improvement of glycaemic excursion following oral glucose: 23%
  Improvement of insulin response following oral glucose: 68%
High fat fed mice [7]; islets from mice treated 28 days, glucose, GLP-1, GIP, alanine, arginine, KCl
  Insulin-secretory responses of isolated islets to secretagogues: restored
